Source: patent US20250346550A1, “METHODS OF MODULATING ENDONUCLEASE G USING RESVERATROL AND ITS DERIVATIVES” (THE REGENTS OF THE UNIVERSITY OF COLORADO A BODY CORPORATE, priority 2022, published 2025)
“Also recorded” adds a separate entry of the source.

Assays:
[1] = tested on: paternal mitochondrial elimination (PME) in C. elegans wild-type (N2) cross-fertilized embryos; assay: PME fluorescent microscopy assay (MTR-stained paternal mitochondrial clusters), N2 males x N2 hermaphrodites; type: in vivo; conditions: for effect on PME when males were treated: 50 μM pretreatment of males before mating (FIG. 3a, b); for dynamics of PME at different embryonic stages: 50 μM vs 0.25% ethanol mock (FIG. 1g, FIG. 12); for effect on PME: 64-cell embryos (FIG. 1b, d); for effect on PME of the UV-irradiated solution: compound irradiated with UV for 4 hours, 64-cell embryos (FIG. 1e, f); for concentration sufficient to significantly affect PME / concentration showing maximal PME activity: dose series (FIG. 7a, b); for concentration sufficient to significantly affect PME: cis: inhibition, 64-cell, trans: enhancement, 16-cell; for concentration showing maximal PME activity: cis: inhibitory, trans: enhancing
Experimental: FIG. 1. […] The numbers of MTR-stained paternal mitochondrial clusters in 64-cell cross-fertilized embryos from mating of MTR-stained N2 males with N2 hermaphrodites in the presence of the indicated compounds (100 μM) were scored. n≥15 embryos for each compound. b, d-g, Quantification of MTR-stained paternal mitochondrial clusters in 64-cell stage embryos (b, d-f) or in embryos at the indicated stage (g) from the cross between MTR-stained N2 males and N2 hermaphrodites, in the presence of 0.25% ethanol (Mock) or 50 μM of the indicated compound. In each experiment, n>40 embryos (b,d,e), n=20 embryos (f), and n≥10 embryos (g) were scored, respectively. […] Data are mean±s.e.m. **P<0.01, ***P<0.001; n.s., not significant, two-sided, unpaired t-test.
FIG. 7. Effects of different dosages of resveratrol isomers on PME. a, b, The effects of different dosages of cis-resveratrol (a) and trans-resveratrol (b) on PME. The numbers of MTR-stained paternal mitochondrial clusters in 64-cell embryos (a) or 16-cell embryos (b) from mating of MTR-stained N2 males with N2 hermaphrodites in the presence of the indicated concentrations of resveratrol isomers were scored. […] N2 hermaphrodites and MTR-stained uaDf5/+ males were mated as indicated in the presence of 0.25% ethanol (Mock, d), 50 μM trans-resveratrol (e), or 50 μM cis-resveratrol (f). Males also carried smIs42, an integrated Psur-5sur-5::gfp transgene, which directs GFP expression in all somatic cells in most developmental stages, and was used to track cross progeny. A single cross-fertilized embryo or larva (MTR- or GFP-positive) at the indicated stage was analyzed by PCR. uaDf5/+ and N2 hermaphrodites were controls.
FIG. 12. […] Quantification of MTR-stained paternal mitochondrial clusters at the indicated embryonic stages from the cross between MTR-stained N2 males and N2 hermaphrodites, in the presence of 0.25% ethanol (Mock) or 50 μM of the indicated compound. In each experiment, n≥10 embryos embryos. Data are mean±s.e.m. **P<0.01, ***P<0.001; n.s., not significant, two-sided, unpaired t-test.
Following fertilization, paternal mitochondria are rapidly depolarized and damaged in fertilized eggs, which could generate and release reactive oxygen species (ROS) that affect PME and embryo development. We thus screened twelve small molecules derived from natural products that have been used as antioxidants for the potential activity in modulating PME (FIG. 6a), using a fluorescent microscopy assay. In this assay, C. elegans wild-type (N2) males prestained with Mitotracker Red (MTR), a mitochondrion-specific fluorescent dye, were mated with unstained N2 hermaphrodites in the presence of the compound of interest ([…]) and the cross-fertilized embryos were examined for the presence of MTR-stained paternal mitochondria or mitochondrial clusters.

[2] = tested on: PME defect of cps-6(tm3222) embryos; assay: PME microscopy assay in cps-6(tm3222) crosses; type: in vivo, C. elegans; conditions: 50 μM, 64-cell embryos (FIG. 3e-g)
Experimental: The numbers of MTR-stained paternal mitochondrial clusters in embryos at 64-cell (a) or 16-cell (b) stage from the indicated crosses were scored. N2 males or hermaphrodites were pretreated with 0.25% ethanol (Mock), 50 μM cis-resveratrol (a), or 50 μM trans-resveratrol (b) as indicated before mating. c-g, Quantification of MTR-stained paternal mitochondrial clusters in 64-cell embryos from the indicated crosses treated with 0.25% ethanol (Mock), 50 μM cis-resveratrol, and 50 μM trans-resveratrol, respectively. Alleles used are lgg-1(bp523), cps-6(tm3222) and rad-23(tm2595).
The numbers of MTR-stained paternal mitochondrial clusters were scored as in FIG. 1a. cps-6(tm3222) and lgg-1(bp523) alleles were used in the assays. Data are mean±s.e.m. n=20 embryos (b) and 15 embryos (c) in each experiment. **P<0.01; ***P<0.001; n.s., not significant, two-sided, unpaired t-test.
To investigate how these six compounds might affect PME, the present inventors performed chemical genetic analysis to analyze the PME pathways that might be affected by the compounds. The present inventors first examined whether they might affect the paternal PME pathway mediated by the mitochondrial endonuclease CPS-6, whose activity is inhibited by oxidation and protected by reducing agents.

[3] = HPLC analysis of resveratrol isomer composition / interconversion; type: physicochemical; conditions: UV irradiation 4 hours at 0° C.; for fraction converted into the other isomer on UV exposure: pure isomer, 50 μM solution
Experimental: FIG. 2. High performance liquid chromatography analysis of resveratrol isomers. a, b, e-g HPLC profiles and peak retention times detected at 303 nm of 1.0 μg commercially “pure” trans-resveratrol (a), 1.0 μg of commercially “pure” cis-resveratrol (b), 20 μL of 50 μM aged trans-resveratrol solution (e), 20 μL of 50 μM commercially “pure” trans-resveratrol solution subjected to UV irradiation for 4 hours at 0° C. (f), and 20 μL of 50 μM commercially “pure” cis-resveratrol solution subjected to UV irradiation for 4 hours at 0° C. (g). Due to the different extinction coefficients of the resveratrol isomers, standard curves of trans-resveratrol (c) and cis-resveratrol (d) were generated by analyzing a series of working solutions for each isomer. Good linear correlations (R^2≥0.9999) were acquired over the concentration range of 0-45 μM trans-resveratrol (c) and 0-110 μM cis-resveratrol (d), with the corresponding regression equations. (h) Compositions of the resveratrol isomers in the indicated samples, without or with UV irradiation (see Methods) as quantified by HPLC.
To confirm the interconversion between trans-resveratrol and cis-resveratrol and to quantitatively measure the ratio of cis- and trans-isomers in the resveratrol solution, we performed high performance liquid chromatography (HPLC) analysis, which can effectively separate trans- and cis-isomers (FIG. 2a, b). […] This ratio of trans- and cis-resveratrol accounts for the unexpected PME inhibition by the aged trans-resveratrol solution (FIG. 1a, b), because cis-resveratrol could inhibit PME (FIG. 1d) and became the dominant isomer in this aged trans-resveratrol solution (FIG. 2h).

[4] = tested on: paternal uaDf5 mtDNA in cross-fertilized embryos; assay: PCR-based PME assay (paternal uaDf5 mtDNA); type: in vivo, C. elegans; conditions: 50 μM; mock: detected up to 64-cell stage embryos
Description: FIG. 7. Effects of different dosages of resveratrol isomers on PME. a, b, The effects of different dosages of cis-resveratrol (a) and trans-resveratrol (b) on PME. The numbers of MTR-stained paternal mitochondrial clusters in 64-cell embryos (a) or 16-cell embryos (b) from mating of MTR-stained N2 males with N2 hermaphrodites in the presence of the indicated concentrations of resveratrol isomers were scored. […] A single cross-fertilized embryo or larva (MTR- or GFP-positive) at the indicated stage was analyzed by PCR. uaDf5/+ and N2 hermaphrodites were controls.
We confirmed these findings using a polymerase chain reaction (PCR)-based PME assay, which monitors the fate of paternal mtDNA in fertilized eggs from males carrying a 3053 bp mtDNA deletion allele (uaDf5) in a heteroplasmic mixture with wild-type mtDNA (FIG. 7c). In mating between N2 hermaphrodites and uaDf5/+ males treated with the mock control, PCR products derived specifically from paternal uaDf5 mtDNA were detected only in early stage cross-fertilized embryos, up to 64-cell stage embryos (FIG. 2d).

SMILES | effect on PME when males were treated [1] | dynamics of PME at different embryonic stages [1] | effect on PME ([1]; 50 μM) | effect on PME when only hermaphrodites were treated ([1]; 50 μM, males mock treated (FIG. 3a)) | effect on PME of the UV-irradiated solution ([1]; 50 μM) | concentration sufficient to significantly affect PME [1] [µM] | concentration showing maximal PME activity [1] [µM] | average paternal mitochondrial clusters in 64-cell embryos ([1]; freshly prepared, 50 μM (FIG. 1d)) [clusters] | effect on PME defect in cps-6(tm3222) mutant and cps-6; lgg-1 and cps-6; rad-23 double mutants [2] | cis-resveratrol remaining in the mixture after UV exposure [3] [%] | fraction converted into the other isomer on UV exposure [3] [%] | fate of paternal uaDf5 mtDNA [4]
Oc1ccc(/C=C\c2cc(O)cc(O)c2)cc1 [cis-resveratrol] | PME was suppressed | blocked rapid elimination of paternal mitochondria | inhibited PME better than the aged trans-resveratrol | PME proceeded normally | reduced PME inhibitory activity | 1 | 50 | 16 | neither cis-resveratrol nor trans-resveratrol could enhance or suppress the PME defect | 60 | 40 | persistence of uaDf5 mtDNA to the late 4-fold embryos
Oc1ccc(/C=C/c2cc(O)cc(O)c2)cc1 [trans-resveratrol, 3,5,4′-trihydroxy-trans-stilbene] | only acted through males to enhance PME | accelerated elimination of paternal mitochondria; also recorded: identical activity in promoting PME | did not inhibit PME | – | acquired the activity to inhibit PME | 25 | 50 | – | neither cis-resveratrol nor trans-resveratrol could enhance or suppress the PME defect | – | 68.5 | accelerated degradation of uaDf5 mtDNA
